Experiment: Plasma pharmacokinetics after single and multiple doses
Assay type: in vivo, Japanese patients

CCc1nc(C(N)=O)c(Nc2ccc(N3CCC(N4CCN(C)CC4)CC3)c(OC)c2)nc1NC1CCOCC1 [gilteritinib]
accumulation relative to baseline (after multiple dose administration): ~8 fold | half-life (human, plasma, oral): 84 to 126 h | Tmax (human, plasma, oral, Median tmax, after administration of single or multiple doses): 3 to 7 h | achievement of steady-state gilteritinib plasma concentrations (mean trough concentrations) (once-daily dosing, Day 1 Cycle 1 through Day 1 Cycle 2): by Day 15 Cycle 1 | exposure versus dose (single-dose and multiple-dose): increased in a dose‐proportional manner
